PMC3447753, “Relacin, a Novel Antibacterial Agent Targeting the Stringent Response” (PLoS Pathogens, 2012)

Target: T1, Rel/Spo (D. radiodurans) (Deinococcus radiodurans, UniProt Q9RTC7)
T1 construct: gene DR_1838; full length, His-tagged (anti-His detection), expressed in E. coli BL21 CodonPlus
T1 sequence (Q9RTC7 1-787): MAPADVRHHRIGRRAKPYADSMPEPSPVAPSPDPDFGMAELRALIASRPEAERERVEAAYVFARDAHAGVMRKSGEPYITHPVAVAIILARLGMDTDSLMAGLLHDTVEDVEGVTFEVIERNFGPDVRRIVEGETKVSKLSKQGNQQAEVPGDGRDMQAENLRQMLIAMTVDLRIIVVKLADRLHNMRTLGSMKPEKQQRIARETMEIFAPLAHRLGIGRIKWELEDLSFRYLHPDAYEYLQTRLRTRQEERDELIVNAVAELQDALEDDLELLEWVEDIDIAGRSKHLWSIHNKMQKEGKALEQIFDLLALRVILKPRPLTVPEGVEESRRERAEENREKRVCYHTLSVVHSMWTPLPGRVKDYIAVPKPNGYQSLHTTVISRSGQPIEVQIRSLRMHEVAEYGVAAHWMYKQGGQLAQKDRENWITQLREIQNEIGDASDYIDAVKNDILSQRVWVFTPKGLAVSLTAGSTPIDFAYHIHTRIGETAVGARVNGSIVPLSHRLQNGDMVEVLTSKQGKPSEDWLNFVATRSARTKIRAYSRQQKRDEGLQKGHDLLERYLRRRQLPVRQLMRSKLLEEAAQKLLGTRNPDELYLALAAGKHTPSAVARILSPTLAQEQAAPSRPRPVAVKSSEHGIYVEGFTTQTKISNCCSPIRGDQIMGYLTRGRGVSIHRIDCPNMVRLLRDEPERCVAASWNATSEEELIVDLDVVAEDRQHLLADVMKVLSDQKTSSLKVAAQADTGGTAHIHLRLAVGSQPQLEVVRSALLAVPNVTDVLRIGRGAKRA
Experiment: (p)ppGpp synthesis from alpha-32P-GTP, PEI-TLC autoradiography
Assay type: biochemical
Conditions: 0.5 mM GTP, 4 mM ATP, 10 mM MgCl2, pH 7.4, isolated ribosomes; inhibitor concentration only in figure

CC(C)C(=O)Nc1nc2c(ncn2[C@H]2C[C@H](OC(=O)NCC(=O)NCC(=O)O)[C@@H](COC(=O)NCC(=O)NCC(=O)O)O2)c(=O)[nH]1 [Relacin]
% inhibition at highest Relacin concentration: ~ 80%
